Square brackets hold non-standard residues; d marks the D form. Ends that are not written are not given here. Cit = NC(=O)NCCC[C@H](N)C(=O)O
Legend:
TGF-β = TGF-β gene expression in peripheral blood mononuclear cells of RA patients, real-time PCR; format: cell-based, human; conditions: for mean expression levels of TGF-β: PBMC from 6 RA patients, compared with matched non-citrullinated peptide; for TGF-β gene expression level: PBMC of RA patients, 24 h incubation, peptide 0.25 or 1.25 μg/ml, compared with control non-citrullinated peptides
Text: (§1) Citrullinated peptide derived from filaggrin, set forth in SEQ ID NO: 3, (HQCHQESTCitGRSRGRCGRSGS) designated Fil-Cit and citrullinated peptide derived from β-fibrinogen sequence (designated β-Fib-Cit) set forth in SEQ ID NO: 2 (CitPAPPPISGGGYCitACit) were examined for their ability to immunomodulate cytokine expression in peripheral blood mononuclear cells from rheumatoid arthritis patients. Matched non-citrullinated forms of those peptides served as control, and were designated Fil-NC and β-Fib-NC, respectively. All rheumatoid arthritis patients who participated in the study signed an informed consent and the research was approved by the Sheba Helsinki committee (approval No 9247-12-SMC). All procedures were conducted according to good clinical practice (GCP) regulations.
(§2) Peripheral blood mononuclear cells were isolated from blood samples using Ficoll-Paque density gradient centrifugation. The extracted cells were cultivated in the presence of Fil-Cit (0.25 μg/ml or 1.25 μg/ml), β-Fib-Cit (0.25 μg/ml or 1.25 μg/ml) and the control matched peptides. Total RNA was extracted 24 h after incubation with the peptides.
To further investigate the ex vivo effects of the citrullinated peptides on TGF-β expression, peripheral blood mononuclear cells obtained from 6 rheumatoid arthritis patients were cultured in the presence of citrullinated or control peptides. […] Up-regulation was likewise indicated in peripheral blood mononuclear cells incubated with Fil-Cit.

IFN-γ = IFN-γ gene expression in peripheral blood mononuclear cells of RA patients, real-time PCR; format: cell-based, human; conditions: PBMC of RA patients, 24 h incubation, peptide 0.25 or 1.25 μg/ml, compared with control non-citrullinated peptides
Text: as §1, §2

IL-17 = IL-17 gene expression in peripheral blood mononuclear cells of RA patients, real-time PCR; format: cell-based, human; conditions: PBMC of RA patients, 24 h incubation, peptide 0.25 or 1.25 μg/ml, compared with control non-citrullinated peptides
Text: as §1, §2

CD4+CD25+Foxp3+ T cells = assay: Regulatory T cell proportion in PBMC of RA patients, FACS; format: cell-based, human; conditions: 48 hours
Experimental: Given the observed immunomodulation of cytokines following incubation of peripheral blood mononuclear cells obtained from rheumatoid arthritis patients with citrullinated peptides, the citrullinated peptides were tested for their ability to exert an effect on the T regulatory population proportion. Peripheral blood mononuclear cells of rheumatoid arthritis patients were cultured in the presence of 1.25 μg/ml of the peptides (Fil-Cit, β-Fib-Cit, and Cit-ME; FIGS. 6A, 6B and 6E, respectively, and Fil-NC, β-Fib-NC and Non-Cit-ME; FIGS. 6C, 6D and 6G, respectively), and Infliximab (FIG. 6F) for 48 hours. Cells cultured with medium devoid of the peptides and Infliximab served as control (FIG. 6H). Thereafter, cells were stained for the expression of CD4, CD25, and FoxP3 and analyzed by FACS. […] Mean percentage of CD4^+CD25^+Foxp3^+ T cells in the presence of Infliximab was increased by 14% as compared to medium (FIG. 6F and FIG. 6H, respectively). Thus, citrullinated peptides are able to induce the expansion of the T regulatory cell population.

pathogenic Th17 cells = assay: Pathogenic Th17 cell proportion in PBMC of RA patients, FACS; format: cell-based, human; conditions: 48 hours
Experimental: To assess ability of the citrullinated peptides to affect the pathogenic Th17 cells population proportion, peripheral blood mononuclear cells of rheumatoid arthritis patients were cultured in the presence of citrullinated peptides, non-citrullinated peptides and Infliximab for 48 hours. In the last 4 hours phorbol12-myristate 13-acetate (PMA), ionomycin and brefeldin A were added to the culture. Thereafter cells were stained with antibodies against CD3 and IL-17. As shown in FIGS. 7A-7H, significant down-regulation in the mean percentage of pathogenic Th17 cells was detected following incubation with the citrullinated peptides: decrease of 21% (Fil-Cit; E), 5% (β-Fib-Cit; F), and 26% (Cit-ME; G) as compared with the non-citrullinated matched peptides (FIG. 7A-7C, respectively). Mean percentage of pathogenic Th17 cells in the presence of Infliximab was decreased by 48% (FIG. 7H) as compared to medium (FIG. 7D).

TNF-α [1] = assay: TNF-α gene expression in peripheral blood mononuclear cells of RA patients, real-time PCR; format: cell-based, human; conditions: PBMC of RA patients, 24 h incubation, peptide 0.25 or 1.25 μg/ml, compared with control non-citrullinated peptides
Text: as §1, §2

T cells = T cells apoptosis in PBMC of RA patients, annexin V/PI FACS; format: cell-based, human; conditions: 24 hours, gated on PI negative cells
Experimental: To assess the ability of the citrullinated peptides to affect T cells apoptosis, peripheral blood mononuclear cells of rheumatoid arthritis patients were cultured in the presence of citrullinated, non-citrullinated peptides and Infliximab for 24 hours. Cells were double-stained for annexin V-fluorescein isothiocyanate (FITC) and PI-PE (apoptosis/necrosis markers) and analyzed by FACS. The results in FIG. 8 are presented after gating for PI negative cells (live cells). The β-Fib-Cit and Cit-ME (FIGS. 8A and 8B, respectively) induced T cells apoptosis (by 20% and 18%, respectively) as compared with the non-citrullinated peptides Non-Cit-β-Fib (FIG. 8D) and Non-Cit-ME (FIG. 8E). Infliximab induced apoptosis by 28% (FIG. 8C) as compared with the medium control (FIG. 8F).

TNF-α [2] = assay: TNF-α gene expression in mononuclear cells derived from synovial fluid of RA patients, real-time PCR; format: cell-based, human; conditions: compared to medium alone (control)
Experimental: To assess the effect of the Cit-ME peptide (SEQ ID NO: 1) on inflammatory related genes expression, peripheral blood mononuclear cells derived from synovial fluid rheumatoid arthritis patients were incubated with the Cit-ME multi-epitope citrullinated peptide for 24 h. The effect of the peptide on gene expression was compared also to the effect of infliximab, a TNF-α blocker, which is an antirheumatic drug that acts as an anti-inflammatory compound. […] Results were determined by real-time PCR.

AIA rats [3] = assay: Adjuvant-Induced Arthritis (AIA) in rats, paw swelling and clinical signs; format: in vivo, rat; conditions: AIA rats, 8 subcutaneous injections of 300 μg per rat on alternate days from day 7
[4] = test system: CD4+CD25+FoxP3+ regulatory T cells; assay: Regulatory T cells in splenocytes of AIA rats, FACS; format: in vivo, rat
Text: Splenocytes from rats at day 28 post disease induction were stained with anti-CD4-FITC, anti-CD25-APC, and anti-Foxp3-PE (eBioscience) mAbs and analyzed by FACS. In representative outputs as shown in FIG. 12A-C, Regulatory T cells subpopulation was higher in Cit-ME treated rats (9%), compared to 7% and 6.2% in Non-Cit-ME peptide and untreated rats, respectively. Statistical analysis of the results is shown in FIG. 12D (Cit-ME n=9, Non-Cit-ME n=11, untreated rats n=7).

[5] = test system: T cells derived from the spleen; assay: Apoptosis of T cells from the spleen of AIA rats, Annexin V/PI staining; format: in vivo, rat; conditions: gated for PI and CD4+, two independent experiments, control 13±1%
Experimental: To assess apoptosis of T cells derived from the spleen of treated rats, the Annexin V/PI staining method was preformed. FIGS. 14A-14C are representative histograms of cells treated with Cit-Me (FIG. 14A), non-Cit-Me (FIG. 14B) or untreated (FIG. 14C). The histograms present apoptosis measured by Annexin V^+. First, cells were gated for PI and CD4^+ and next analyzed for percentage of Annexin-V positive cells. […] A significant increase (p<0.01) in the mean apoptotic rate was determined in cells from the spleen of Cit-ME treated rats (19.5±1.8%) in comparison with Non-Cit-ME or control (13.8±1.3% and 13±1%, respectively).

AIA rats [6] = assay: Histological signs of arthritis in ankle joints of AIA rats; format: in vivo, rat; conditions: day 28 post disease induction, H&E, untreated 1.75±0.41
Experimental: To evaluate the histological signs of arthritis, rats were sacrificed and ankle joints were collected on day 28 post disease induction. The joints were fixed immediately for 24 hours in 4% paraformaldehyde, then decalcified in rapid bone decalcifier (RDO; Apex Engineering, Plainfield, Ill., USA) for 6 hours at room temperature, and further fixed in 4% paraformaldehyde before embedding in paraffin. Sections (5 μm thick) were rehydrated in a graded ethanol series and stained with haematoxylin & eosin (H&E). FIGS. 11A to 11C show representative H&E stained joint tissue sections (magnification ×100). Arrowheads denote the infiltrated zones, scale bar=200 μm. The specimens were scored for severity of inflammation in the synovium, pannus formation, cartilage, and bone erosion. A close correlation between the clinical signs and the histopathological findings was found.

[7] = 1.25 μg/ml peptide, compared with non-citrullinated matched peptide
[8] = PMA, ionomycin and brefeldin A in last 4 hours, compared with non-citrullinated matched peptide

Row | Substance | mean expression levels of TGF-β (TGF-β) | TGF-β gene expression level (TGF-β) | IFN-γ gene expression level (IFN-γ) | IL-17 gene expression level (IL-17) | increase in mean percentage of CD4+CD25+Foxp3+ T cells (CD4+CD25+Foxp3+ T cells; [7]) [%] | decrease in mean percentage of pathogenic Th17 cells (pathogenic Th17 cells; [8]) [%] | TNF-α gene expression level (TNF-α [1]) | induction of T cells apoptosis (T cells; compared with matched non-citrullinated peptide) [%] | expression level of TNF-α (TNF-α [2]) | increase in mean percentage of CD4+CD25+Foxp3+ T cells (CD4+CD25+Foxp3+ T cells; compared to medium) [%] | decrease in mean percentage of pathogenic Th17 cells (pathogenic Th17 cells; compared to medium) [%] | induction of apoptosis (T cells; compared with the medium control) [%] | clinical score post immunization (AIA rats [3]) | percentage of CD4+CD25+FoxP3+ regulatory T cells subset, statistical analysis ([4]; spleens of AIA rats, day 28, untreated 7.17±0.31) [%] | Regulatory T cells subpopulation, representative outputs ([4]; splenocytes of AIA rats, day 28 post disease induction, untreated 6.2%) [%] | mean apoptotic rate (Annexin-V positive cells) [5] [%] | histological inflammatory score (AIA rats [6])
1 | CitPAPPPISGGGYCitACit ([Cit]PAPPPISGGGY[Cit]A[Cit]) [β-Fib-Cit] | significantly up-regulated | significantly up-regulated | down-regulated | down-regulated | 50 | 5 | down-regulated | 20 |  |  |  |  |  |  |  |  | 
2 | HQCHQESTCitGRSRGRCGRSGS (HQCHQEST[Cit]GRSRGRCGRSGS; cysteine pairing not given here) [Fil-Cit, citrullinated peptide derived from filaggrin] | Up-regulation | significantly up-regulated | down-regulated | down-regulated | 56 | 21 | down-regulated |  |  |  |  |  |  |  |  |  | 
3 | Infliximab: a TNF-α blocker, an antirheumatic drug that acts as an anti-inflammatory compound [reference compound] |  |  |  |  |  |  |  |  | downregulated | 14 | 48 | 28 |  |  |  |  | 
4 | VRLRSSVESTRGRSRPAPPPARGLT [Non-Cit-ME] |  |  |  |  |  |  |  |  |  |  |  |  | Reduction in clinical score | 6.97±0.22 | 7 | 13.8±1.3 | 1.28±0.6
